Holding throughout (assay type): biochemical
The target of experiment [1] is CDK9/CyclinT1 (Homo sapiens (Human), UniProt P50750). As to the kind of experiment: CDK9/CyclinT1 kinase inhibitory activity (Caliper mobility shift). Particulars: read-out: CDK9/Cyclin T1 IC50.
The target of experiment [2] is CDK4/Cyclin D1 (Homo sapiens (Human), UniProt P11802). As to the kind of experiment: CDK4/CyclinD1 kinase inhibitory activity (Caliper mobility shift).
Experiment [3] concerns the target CDK6/CyclinD1 (Homo sapiens (Human), UniProt Q00534). As to the kind of experiment: CDK6/CyclinD1 kinase inhibitory activity (Caliper mobility shift). To be noted: read-out: CDK6/Cyclin D1 IC50.
Experiment [4] has as its target CDK7/CyclinH/MAT1 (Homo sapiens (Human), UniProt P50613). Put plainly: CDK7/CyclinH/MAT1 kinase inhibitory activity (Caliper mobility shift).
For experiment [5], the target named is CDK2/CyclinE1 (Homo sapiens (Human), UniProt P24941). As to the kind of experiment: CDK2/CyclinE1 kinase inhibitory activity (Caliper mobility shift). Particulars: for pIC50: read-out: CDK2/Cyclin El IC50.
In experiment [6] the target is CDK1/CyclinB (Homo sapiens (Human), UniProt P06493). As to the kind of experiment: CDK1/CyclinB kinase inhibitory activity (Caliper mobility shift). To be noted: read-out: CDK1/Cyclin B1 IC50.

The structures appear in SMILES notation. pIC50: −log10 of the molar value. Where only a bound is given, the exact number is not on record here.

Chain of CDK7/CyclinH/MAT1 (P50613 whole entry): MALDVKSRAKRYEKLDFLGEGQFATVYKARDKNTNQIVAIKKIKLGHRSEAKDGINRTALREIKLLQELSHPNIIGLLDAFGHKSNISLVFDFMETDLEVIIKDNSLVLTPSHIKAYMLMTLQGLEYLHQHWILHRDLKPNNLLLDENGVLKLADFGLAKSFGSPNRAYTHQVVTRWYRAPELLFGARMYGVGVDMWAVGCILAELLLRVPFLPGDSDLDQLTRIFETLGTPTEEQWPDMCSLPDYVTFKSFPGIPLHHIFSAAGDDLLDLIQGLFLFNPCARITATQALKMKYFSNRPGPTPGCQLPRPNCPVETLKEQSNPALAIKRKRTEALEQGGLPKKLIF
Chain of CDK7/CyclinH/MAT1 (P51946 whole entry partner): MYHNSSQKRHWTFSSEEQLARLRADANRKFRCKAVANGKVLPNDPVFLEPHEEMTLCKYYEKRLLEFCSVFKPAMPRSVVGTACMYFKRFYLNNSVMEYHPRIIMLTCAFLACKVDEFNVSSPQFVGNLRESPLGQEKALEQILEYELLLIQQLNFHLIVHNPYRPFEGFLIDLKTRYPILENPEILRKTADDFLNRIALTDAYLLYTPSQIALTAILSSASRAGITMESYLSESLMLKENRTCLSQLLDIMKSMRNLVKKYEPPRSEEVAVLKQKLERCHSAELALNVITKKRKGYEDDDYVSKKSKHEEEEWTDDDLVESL
Chain of CDK7/CyclinH/MAT1 (P51948 whole entry partner): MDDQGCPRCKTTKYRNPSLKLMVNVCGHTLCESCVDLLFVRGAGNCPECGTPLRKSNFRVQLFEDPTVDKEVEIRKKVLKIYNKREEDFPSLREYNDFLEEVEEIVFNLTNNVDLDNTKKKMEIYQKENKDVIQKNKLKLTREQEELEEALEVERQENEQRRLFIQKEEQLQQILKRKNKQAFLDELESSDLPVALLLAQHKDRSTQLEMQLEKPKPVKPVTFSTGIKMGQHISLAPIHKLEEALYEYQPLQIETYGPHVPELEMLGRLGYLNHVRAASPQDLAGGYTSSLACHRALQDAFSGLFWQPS
Chain of CDK9/CyclinT1 (P50750 whole entry): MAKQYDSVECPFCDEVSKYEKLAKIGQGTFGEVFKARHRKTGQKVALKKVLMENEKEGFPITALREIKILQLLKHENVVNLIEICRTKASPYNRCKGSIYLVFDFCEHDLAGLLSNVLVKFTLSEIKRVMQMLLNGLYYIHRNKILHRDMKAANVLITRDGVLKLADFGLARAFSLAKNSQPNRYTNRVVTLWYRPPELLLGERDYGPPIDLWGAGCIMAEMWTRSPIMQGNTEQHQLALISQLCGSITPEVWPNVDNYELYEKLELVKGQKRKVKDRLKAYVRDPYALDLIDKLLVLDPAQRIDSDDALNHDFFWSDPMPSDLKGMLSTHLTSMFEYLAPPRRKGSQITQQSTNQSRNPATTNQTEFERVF
Chain of CDK9/CyclinT1 (O60563 whole entry partner): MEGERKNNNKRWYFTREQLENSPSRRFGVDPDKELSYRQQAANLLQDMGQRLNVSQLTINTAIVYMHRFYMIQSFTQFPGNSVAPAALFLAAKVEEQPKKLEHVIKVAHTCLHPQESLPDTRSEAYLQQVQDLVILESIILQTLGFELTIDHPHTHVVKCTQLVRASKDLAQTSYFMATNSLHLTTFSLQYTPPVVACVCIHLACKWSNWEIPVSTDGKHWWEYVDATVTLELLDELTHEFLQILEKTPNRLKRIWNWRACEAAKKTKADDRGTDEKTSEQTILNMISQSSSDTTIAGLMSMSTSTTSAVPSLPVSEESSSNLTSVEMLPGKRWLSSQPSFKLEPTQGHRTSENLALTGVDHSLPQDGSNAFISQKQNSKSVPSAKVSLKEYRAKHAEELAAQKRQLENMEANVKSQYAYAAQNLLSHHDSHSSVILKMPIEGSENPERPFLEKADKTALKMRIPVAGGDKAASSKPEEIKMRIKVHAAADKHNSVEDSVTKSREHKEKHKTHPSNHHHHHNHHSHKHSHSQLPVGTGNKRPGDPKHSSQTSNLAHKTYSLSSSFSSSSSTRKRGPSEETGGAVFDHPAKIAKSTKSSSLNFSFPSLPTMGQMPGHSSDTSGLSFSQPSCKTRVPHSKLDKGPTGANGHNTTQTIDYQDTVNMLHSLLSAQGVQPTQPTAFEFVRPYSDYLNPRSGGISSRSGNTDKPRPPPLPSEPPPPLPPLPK
Chain of CDK4/Cyclin D1 (P11802 whole entry): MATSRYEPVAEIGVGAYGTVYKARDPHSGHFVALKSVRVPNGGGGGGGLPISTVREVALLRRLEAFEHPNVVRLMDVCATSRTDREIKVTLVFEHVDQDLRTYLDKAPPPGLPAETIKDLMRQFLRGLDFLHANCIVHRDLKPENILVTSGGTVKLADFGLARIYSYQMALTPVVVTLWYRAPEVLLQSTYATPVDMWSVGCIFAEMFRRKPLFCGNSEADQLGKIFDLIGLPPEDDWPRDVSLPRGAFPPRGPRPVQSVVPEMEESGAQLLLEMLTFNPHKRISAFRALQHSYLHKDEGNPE
Chain of CDK4/Cyclin D1 (P24385 whole entry partner): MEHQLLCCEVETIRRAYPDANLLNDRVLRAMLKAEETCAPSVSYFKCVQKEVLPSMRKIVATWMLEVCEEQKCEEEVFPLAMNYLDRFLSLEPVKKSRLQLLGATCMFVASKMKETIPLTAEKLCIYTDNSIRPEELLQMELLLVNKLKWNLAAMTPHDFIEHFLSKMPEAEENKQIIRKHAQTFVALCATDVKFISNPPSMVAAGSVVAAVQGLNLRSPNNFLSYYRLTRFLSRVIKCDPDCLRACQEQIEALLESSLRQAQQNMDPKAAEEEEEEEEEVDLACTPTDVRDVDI
Chain of CDK1/CyclinB (P06493 whole entry): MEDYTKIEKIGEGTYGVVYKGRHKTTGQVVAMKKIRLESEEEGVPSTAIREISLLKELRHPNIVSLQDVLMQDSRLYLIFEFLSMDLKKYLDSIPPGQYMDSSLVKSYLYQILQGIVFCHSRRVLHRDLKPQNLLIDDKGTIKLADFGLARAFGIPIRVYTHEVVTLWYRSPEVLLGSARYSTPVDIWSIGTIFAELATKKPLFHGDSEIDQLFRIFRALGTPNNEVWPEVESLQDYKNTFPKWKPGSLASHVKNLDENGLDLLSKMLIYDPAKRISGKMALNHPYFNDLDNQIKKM
Chain of CDK1/CyclinB (P14635 whole entry partner): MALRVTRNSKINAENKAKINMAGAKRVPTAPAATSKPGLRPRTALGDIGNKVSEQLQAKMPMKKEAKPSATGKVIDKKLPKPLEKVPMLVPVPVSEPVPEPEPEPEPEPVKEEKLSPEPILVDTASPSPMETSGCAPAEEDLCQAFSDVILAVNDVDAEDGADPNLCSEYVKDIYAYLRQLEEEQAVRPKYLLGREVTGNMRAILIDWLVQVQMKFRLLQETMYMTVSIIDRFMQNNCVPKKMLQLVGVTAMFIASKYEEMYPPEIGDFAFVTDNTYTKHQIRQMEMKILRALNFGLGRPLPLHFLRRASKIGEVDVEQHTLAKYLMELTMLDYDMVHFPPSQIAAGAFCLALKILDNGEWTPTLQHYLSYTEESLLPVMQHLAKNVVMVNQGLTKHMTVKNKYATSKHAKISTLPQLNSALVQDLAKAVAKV
Chain of CDK6/CyclinD1 (Q00534 whole entry): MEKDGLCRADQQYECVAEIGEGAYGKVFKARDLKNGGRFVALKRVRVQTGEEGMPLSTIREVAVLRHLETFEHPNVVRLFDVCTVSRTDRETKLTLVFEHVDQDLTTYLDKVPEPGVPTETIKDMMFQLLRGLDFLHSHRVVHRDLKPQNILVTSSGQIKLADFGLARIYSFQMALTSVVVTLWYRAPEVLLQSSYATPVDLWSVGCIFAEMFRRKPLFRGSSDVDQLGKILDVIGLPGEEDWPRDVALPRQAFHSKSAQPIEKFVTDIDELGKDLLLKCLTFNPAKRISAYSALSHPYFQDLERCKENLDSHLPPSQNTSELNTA
Chain of CDK6/CyclinD1 (P24385 whole entry partner): as the sequence (P24385 whole entry partner) above

As to `O=S(=O)(NC1CC1)c1ccc(Nc2ncc(C(F)(F)F)c(OC3CCCC3O)n2)cc1` (single isomer, unassigned) [Example 107a], the pIC50 was 6.00 to 7.00 in experiment [1]; 6.00 to 7.00 in experiment [2]; 6.00 to 7.00 in experiment [3]; 6.00 to 7.00 in experiment [4]; above 8.00 in experiment [5]; 7.00 to 8.00 in experiment [6].
Regarding `NS(=O)(=O)c1ccc(Nc2ncc(Br)c(OC3CCCC3O)n2)cc1` (single isomer, unassigned) [Example 141a], the pIC50 in experiment [1] is 7.00 to 8.00; in experiment [2] it was 7.00 to 8.00; in experiment [3], 7.00 to 8.00; in experiment [4], 6.00 to 7.00; in experiment [5] it was above 8.00; in experiment [6] it was 7.00 to 8.00.
For `[2H]C([2H])([2H])NS(=O)(=O)c1ccc(Nc2ncc(CC)c(OC3CCOCC3O)n2)cc1` (single isomer, unassigned) [Example 151a], the pIC50 in experiment [1] was at most 6.00; in experiment [2] it was at most 6.00; in experiment [3] it was 6.00 to 7.00; in experiment [4], 6.00 to 7.00; in experiment [5], above 8.00; in experiment [6], 6.00 to 7.00.
On to `CNS(=O)(=O)N1CCC(Nc2ncc(C(F)(F)F)c(OC3CCCCCC3)n2)CC1` [Example 129], for which the pIC50 in experiment [1] was 7.00 to 8.00; in experiment [2], above 8.00; in experiment [3], 6.00 to 7.00; in experiment [4] it was at most 6.00; in experiment [5], above 8.00; in experiment [6] it was 7.00 to 8.00.
In the case of `N#Cc1cnc(Nc2ccc(S(N)(=O)=O)cc2)nc1N1CCCCCC1` [Example 68], the pIC50 in experiment [1] is 7.00 to 8.00; in experiment [2], 7.00 to 8.00; in experiment [3], 7.00 to 8.00; in experiment [4], at most 6.00; in experiment [5], above 8.00; in experiment [6], 7.00 to 8.00.
Turning to `CCc1cnc(Nc2ccc(S(N)(=O)=O)cc2)nc1O[C@@H]1CCC[C@@H]1O` (single isomer, unassigned) [Example 133a, cis-4-((5-ethyl-4-((2-hydroxycyclopentyl)oxy)pyrimidin-2-yl)amino)benzenesulfonamide], the pIC50 in experiment [1] was 7.00 to 8.00; in experiment [2], 6.00 to 7.00; in experiment [3], 7.00 to 8.00; in experiment [4], 6.00 to 7.00; in experiment [5], above 8.00; in experiment [6] it was 7.00 to 8.00.
`[2H]C([2H])([2H])NS(=O)(=O)c1ccc(Nc2ncc(C)c(OC3CCCC3O)n2)cc1` (single isomer, unassigned) [Example 148a]: the pIC50 is 6.00 to 7.00 in experiment [1]; at most 6.00 in experiment [2]; 6.00 to 7.00 in experiment [3]; at most 6.00 in experiment [4]; above 8.00 in experiment [5]; 6.00 to 7.00 in experiment [6].
Regarding `CC(C)NS(=O)(=O)c1ccc(Nc2ncc(Cl)c(OC3CCCC3O)n2)cc1` (single isomer, unassigned) [Example 138a], the pIC50 in experiment [1] was 6.00 to 7.00; in experiment [2] it was 6.00 to 7.00; in experiment [3], 6.00 to 7.00; in experiment [4] it was 6.00 to 7.00; in experiment [5] it was above 8.00; in experiment [6], 7.00 to 8.00.
For `CS(=O)(=O)N1CCC(Nc2ncc(C(F)(F)F)c(OC3CCC3)n2)CC1` [Example 126], the pIC50 in experiment [1] was 6.00 to 7.00; in experiment [2], 7.00 to 8.00; in experiment [3], 7.00 to 8.00; in experiment [4], 6.00 to 7.00; in experiment [5] it was above 8.00; in experiment [6] it was 7.00 to 8.00.
Take `[2H]C([2H])([2H])NS(=O)(=O)c1ccc(Nc2ncc(C(F)(F)F)c(OC3CCCC3O)n2)cc1` (single isomer, unassigned) [Example 109a]: the pIC50 is 6.00 to 7.00 in experiment [1]; 6.00 to 7.00 in experiment [2]; 6.00 to 7.00 in experiment [3]; 6.00 to 7.00 in experiment [4]; above 8.00 in experiment [5]; 7.00 to 8.00 in experiment [6].
Regarding `Cn1cc(S(=O)(=O)N2CCC(Nc3ncc(C#N)c(OCC4(C)CC(F)(F)C4)n3)CC2)cn1` [Example 61], the pIC50 in experiment [1] was 6.00 to 7.00; in experiment [2] it was above 8.00; in experiment [3], 7.00 to 8.00; in experiment [4], 6.00 to 7.00; in experiment [5], above 8.00; in experiment [6] it was 7.00 to 8.00.
Regarding `Cn1cc(S(=O)(=O)N2CCC(Nc3ncc(C(F)(F)F)c(OC4CCOCC4(C)O)n3)CC2)cn1` (single isomer, unassigned) [Example 125a], the pIC50 in experiment [1] was 7.00 to 8.00; in experiment [2], above 8.00; in experiment [3] it was above 8.00; in experiment [4] it was above 8.00; in experiment [5] it was above 8.00; in experiment [6] it was above 8.00.
Consider `[2H]C([2H])([2H])NS(=O)(=O)c1ccc(Nc2ncc(CC)c(OC3CCCC3O)n2)cc1` (single isomer, unassigned) [Example 149a], for which the pIC50 in experiment [1] is 6.00 to 7.00; in experiment [2] it was 6.00 to 7.00; in experiment [3] it was 6.00 to 7.00; in experiment [4], 6.00 to 7.00; in experiment [5], above 8.00; in experiment [6], 7.00 to 8.00.
In the case of `[2H]C([2H])([2H])NS(=O)(=O)c1ccc(Nc2ncc(C(F)(F)F)c(O[C@H]3CCCOC[C@H]3O)n2)cc1` (single isomer, unassigned) [Example 103a, cis-4-((4-((3-hydroxyoxepan-4-yl)oxy)-5-(trifluoromethyl)pyrimidin-2-yl)amino)-N-(methyl-d3)benzenesulfonamide], the pIC50 in experiment [1] is 6.00 to 7.00; in experiment [2] it was 6.00 to 7.00; in experiment [3] it was 6.00 to 7.00; in experiment [4], 6.00 to 7.00; in experiment [5] it was above 8.00; in experiment [6] it was 7.00 to 8.00.
For `CC1(O)CCC(F)(F)CC1Oc1nc(NC2CCN(S(C)(=O)=O)CC2)ncc1C#N` (single isomer, unassigned) [Example 46b], the pIC50 in experiment [1] was 7.00 to 8.00; in experiment [2], above 8.00; in experiment [3], above 8.00; in experiment [4], above 8.00; in experiment [5] it was above 8.00; in experiment [6], above 8.00.
Regarding `N#Cc1cnc(Nc2ccc(S(N)(=O)=O)cc2)nc1OCC1CCC1` [Example 9], the pIC50 in experiment [1] is 6.00 to 7.00; in experiment [2], 7.00 to 8.00; in experiment [3], 7.00 to 8.00; in experiment [4] it was at most 6.00; in experiment [5], above 8.00; in experiment [6] it was 7.00 to 8.00. Further, the “selectivity over CDK1” value in experiment [5] (inhibiting CDK2 over CDK1) was “more than 30 fold”.
With `NS(=O)(=O)c1ccc(Nc2ncc(C(F)(F)F)c(OC3CCOCC3O)n2)cc1` (single isomer, unassigned) [Example 114a], the pIC50 was 7.00 to 8.00 in experiment [1]; 6.00 to 7.00 in experiment [2]; 6.00 to 7.00 in experiment [3]; 6.00 to 7.00 in experiment [4]; above 8.00 in experiment [5]; 7.00 to 8.00 in experiment [6].
For the compound `CN1CCC(NS(=O)(=O)c2ccc(Nc3ncc(Cl)c(OC4CCCC4O)n3)cc2)CC1` (single isomer, unassigned) [Example 139b], the pIC50 is at most 6.00 in experiment [1]; 6.00 to 7.00 in experiment [2]; 6.00 to 7.00 in experiment [3]; at most 6.00 in experiment [4]; 7.00 to 8.00 in experiment [5]; 6.00 to 7.00 in experiment [6].
For the compound `Cn1cc(S(=O)(=O)N2CCC(Nc3ncc(C#N)c(OCC4(C)CCCC4)n3)CC2)cn1` [Example 62], the pIC50 in experiment [1] was 6.00 to 7.00; in experiment [2], above 8.00; in experiment [3] it was 7.00 to 8.00; in experiment [4] it was 6.00 to 7.00; in experiment [5] it was above 8.00; in experiment [6], above 8.00.
On to `CC1(COc2nc(NC3CCN(S(C)(=O)=O)CC3)ncc2C#N)CCCC1` [Example 54], for which the pIC50 in experiment [1] is 6.00 to 7.00; in experiment [2] it was above 8.00; in experiment [3], above 8.00; in experiment [4] it was 6.00 to 7.00; in experiment [5], above 8.00; in experiment [6], 7.00 to 8.00.
As to `CC1(COc2nc(NC3CCN(S(C)(=O)=O)CC3)ncc2C(F)(F)F)CCCC1` [Example 128], the pIC50 was 7.00 to 8.00 in experiment [1]; above 8.00 in experiment [2]; 7.00 to 8.00 in experiment [3]; at most 6.00 in experiment [4]; above 8.00 in experiment [5]; 7.00 to 8.00 in experiment [6].
Consider `CS(=O)(=O)N1CCC(Nc2ncc(C(F)(F)F)c(OC3CCCCC3O)n2)CC1` (single isomer, unassigned) [Example 120a], for which the pIC50 in experiment [1] is 6.00 to 7.00; in experiment [2], 7.00 to 8.00; in experiment [3], 7.00 to 8.00; in experiment [4] it was 7.00 to 8.00; in experiment [5], above 8.00; in experiment [6], 7.00 to 8.00.
In the case of `[2H]C([2H])([2H])NS(=O)(=O)c1ccc(Nc2ncc(C(=C)F)c(O[C@@H]3CCC[C@@H]3O)n2)cc1` (single isomer, unassigned) [Example 135a, cis-4-((5-(1-fluorovinyl)-4-((2-hydroxycyclopentyl)oxy)pyrimidin-2-yl)amino)-N-(methyl-d3)benzenesulfonamide], the pIC50 is 6.00 to 7.00 in experiment [1]; 6.00 to 7.00 in experiment [2]; 6.00 to 7.00 in experiment [3]; 6.00 to 7.00 in experiment [4]; above 8.00 in experiment [5]; 7.00 to 8.00 in experiment [6].
`Cc1cnc(Nc2ccc(S(=O)(=O)NC3CC3)cc2)nc1OC1CCCC1O` (single isomer, unassigned) [Example 146a]: the pIC50 is 6.00 to 7.00 in experiment [1]; at most 6.00 in experiment [2]; 6.00 to 7.00 in experiment [3]; at most 6.00 in experiment [4]; above 8.00 in experiment [5]; 6.00 to 7.00 in experiment [6].
As to `[2H]C([2H])([2H])NS(=O)(=O)c1ccc(Nc2ncc(CC)c(OC3COCCC3(C)O)n2)cc1` (single isomer, unassigned) [Example 153a], the pIC50 in experiment [1] is 7.00 to 8.00; in experiment [2] it was 6.00 to 7.00; in experiment [3], 7.00 to 8.00; in experiment [4] it was 7.00 to 8.00; in experiment [5] it was above 8.00; in experiment [6] it was 7.00 to 8.00.

The values above are taken from patent publication US20240166635A1, “AMINOHETEROARYL KINASE INHIBITORS” (Anrui Biomedical Technology (Guangzhou) Co.,Ltd., priority 2020, published 2024).
